The target of test [1] is T1, GST-Cdk5.GST-Nck5a complex (Homo sapiens, UniProt Q00535).
T1 construct: made in house
Nature of the test: Peptide inhibition of Cdk5 kinase activity (histone H1 peptide, [γ-32P]ATP). It is filed as biochemical. As to conditions: for inhibition of Cdk5 kinase activity (in words): GST-Cdk5.GST-Nck5a, FIG. 2 and 3A. The protocol: (§1) Peptide Inhibition of Cdk5 and Cdk2 Kinase Activity—Cdk5 kinase activity was assayed essentially as described previously, except that for each Cdk5 kinase reaction 1 μg of GST-Cdk5 was reconstituted with 2 μg of GST-Nck5a, and 1 μg of GST-Cdk2 was mixed with 3 μg of cyclin A-H6 in Cdk2 assays. The reconstituted complexes were added, in duplicate, to an assay mixture containing 30 mM MOPS, pH 7.4, 10 mM MgCl2, 40 μM of the histone H1 peptide, 50 μM [γ-^32P]ATP, and various concentrations of various peptides at 30° C. for 30 min before measuring the Cdk5 and Cdk2 kinase activities.

The target in test [2] is T2, GST-Cdk2-cyclin A-H6 complex (Homo sapiens, UniProt P24941).
T2 construct: made in house; host or cells: E. coli BL21(DE3) (cyclin A-H6); GST-Cdk2 not described
Nature of the test: Peptide inhibition of Cdk2 kinase activity (histone H1 peptide, [γ-32P]ATP). The format is biochemical. The following applies: for inhibition of Cdk2 kinase activity (in words): GST-Cdk2.cyclin A-H6, FIG. 3B. The protocol: The C-terminal histidine-tagged human cyclin A (cyclin A-H6) was expressed and purified in essentially the same manner as described for H6-Cdk5. Briefly, the expression plasmid pET21d containing a cyclin A gene lacking the N-terminal 173 amino acids was transformed into BL21(DE3) E. coli cells. The host cells were cultured in LB medium containing 100 μg/ml ampicillin, and cyclin A expression was induced by adding isopropyl-1-thio-β-D-galactopyranoside to a final concentration of 0.1 mM. The induction of cyclin A expression was for 3 h at 30° C. The pelleted cells were resuspended in 50 mM Tris-HCI, pH 7.5, 300 mM NaCl, and 0.05% Triton X-100, and then lysed in the French press. The subsequent purification of cyclin A using a Ni^2+-NTA column was carried out in a manner identical to that described for the purification of H6-Cdk5. The monomeric, active form of cyclin A-H6 was further purified by passing the cyclin A-H6-containing eluent through a Sephacryl S-200 gel filtration column (Amersham Pharmacia Biotech).
as §1

The target in test [3] is T3, H6-Cdk5.GST-Nck5a complex (Homo sapiens, UniProt Q00535).
T3 construct: made in house; host or cells: Escherichia coli M15 (H6-Cdk5)
Description: Peptide/Cdk binding assay: GSH-bead co-precipitation and Western blot of Cdk5. As to conditions: various amounts of peptide (5, 20, 50 μM; 1000-fold excess). The protocol: Peptide/Cdk Binding Assay—H6-Cdk5 (about 3 μg) and 15 μg of GST-p25 were premixed in 300 μl of 1×phosphate-buffered saline with 0.5 mg/ml bovine serum albumin. Some 50-μl quantities of the mixture was taken out to mix with various concentrations of the αN peptide (from serial dilutions made from a 2.0 mM stock solution), and the total volume of the mixture was adjusted to 150 μl using Buffer R (1×phosphate-buffered saline containing 1 mM EDTA, 1 mM dithiothreitol, 0.6 mM phenylmethylsulfonyl fluoride, 1 μg/ml leupeptin, 1 μg/ml leupeptin, 1 μg/ml antipain, 5 mg/ml bovine serum albumin). The reaction mixture was incubated at 4° C for 15 h. GST-Nck5a-H6-Cdk5 complex was then precipitated by the addition of 40 μl of GSH-Sepharose beads pre-equilibrated with 1×phosphate-buffered saline (50%, v/v). The GSH-Sepharose beads were washed three times with 1×phosphate-buffered saline buffer, and subsequently resuspended in 20 μl of water and 20 μl of 2×protein sample treatment buffer. The co-precipitated H6-Cdk5 was detected by SDS-PAGE followed by Western blot using a monoclonal antibody against Cdk5.
To discriminate between these possibilities, we performed direct binding competition experiments. […] The amount of H6-Cdk5 in complex with GST-Nck5a was determined by Western blotting of the enzyme co-precipitated by GSH-agarose beads. […]

Test [4] deals with T2, GST-Cdk2-cyclin A-H6 complex. Nature of the test: Peptide/Cdk binding assay: GSH-bead co-precipitation and Western blot of cyclin A. The following applies: various amounts of peptide (0.5, 2, 10 μM; 1000-fold excess). The protocol:
The binding of the αN peptide to the GST-Cdk2-cyclin A-H6 complex was studied in a similar manner to that described above for H6-Cdk5. Briefly, 3 μg of GST-Cdk2 and 10 μg of cyclin A-H6 were reconstituted in Buffer R with various concentrations of the αN peptide at 4° C. for 15 h. GST-Cdk2 was then precipitated by the addition of 20 μl of GSH-Sepharose beads. After washing, the co-precipitated cyclin A-H6 was detected by SDS-PAGE followed by Western blot using a monoclonal antibody against cyclin A (Santa Cruz).
To discriminate between these possibilities, we performed direct binding competition experiments. Various concentrations of the peptides were added to a H6-Cdk5.GST-Nck5a mixture, and GST-Nck5a was then precipitated using GSH-agarose beads. The amount of H6-Cdk5 in complex with GST-Nck5a was determined by Western blotting of the enzyme co-precipitated by GSH-agarose beads. The amount of H6-Cdk5 and cyclin A-H6 used in the experiment described in FIG. 4, A and B, were chosen to ensure that their respective antibodies would be in excess.

Test [5] concerns the target T1, GST-Cdk5.GST-Nck5a complex. Nature of the test: Steady state kinetic analysis of Cdk5 inhibition (double reciprocal and Dixon plots). The format is biochemical. The protocol: as §1
Steady State Kinetic Experiments—All assay conditions were the same as in the inhibition assay described above, except that the reaction time was kept at 15 min so that the product formed was less than 5% of the total substrate concentration used. To determine suitable concentrations of the substrate and the inhibitor for the steady state kinetic experiments, the Km value of GST-Cdk5.GST-Nck5a complex and a concentration-dependent inhibition profile of the enzyme by the αN peptide were determined. Four different concentrations of the histone H1 peptide (7.5, 10, 15, and 30 μM) were used in the kinetic analysis of the enzyme inhibition. For each substrate concentration, four concentrations of the αN peptide (0, 10, 20, and 30 μM) were used in the inhibition assay.

[6] abbreviates: listed as Nck5a-derived peptide.

A word on the inhibition: it is the change of the read-out against control, counted positive when it falls.

Where a SMILES comes first, the peptide text is derived from it. Where no end group is shown, it is not given here.

T1 sequence (Q00535 whole entry): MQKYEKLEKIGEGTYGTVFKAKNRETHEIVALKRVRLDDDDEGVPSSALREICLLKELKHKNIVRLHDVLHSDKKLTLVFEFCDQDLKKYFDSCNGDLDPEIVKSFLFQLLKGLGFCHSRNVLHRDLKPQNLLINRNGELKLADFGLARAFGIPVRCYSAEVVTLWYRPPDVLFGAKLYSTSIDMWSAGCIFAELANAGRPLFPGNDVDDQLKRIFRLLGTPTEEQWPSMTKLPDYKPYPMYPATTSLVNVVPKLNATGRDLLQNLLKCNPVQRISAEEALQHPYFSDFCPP
T1 sequence (Q15078 99-307 partner limits assumed): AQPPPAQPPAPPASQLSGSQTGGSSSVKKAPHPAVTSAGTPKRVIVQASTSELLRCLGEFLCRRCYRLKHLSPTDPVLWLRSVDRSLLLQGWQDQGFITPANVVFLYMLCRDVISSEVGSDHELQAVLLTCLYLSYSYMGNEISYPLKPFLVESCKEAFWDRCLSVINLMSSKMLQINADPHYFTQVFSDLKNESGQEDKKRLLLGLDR
T3 sequence (Q00535 whole entry): as the sequence (Q00535 whole entry) above
T3 sequence (Q15078 99-307 partner limits assumed): as the sequence (Q15078 99-307 partner limits assumed) above

For “DYHDIHTYLREMEVKPKPKVGYMKKQPDIT (DYHEDIHTYLREMEVKCKPKVGYMKKQPDIT; listed as Homo sapiens) [cyclin A peptide, 31-residue peptide corresponding to Asp177 to Thr207 of human cyclin A, the N-terminal alpha-helix, reference compound]”, the “inhibition of Cdk5 kinase activity (in words)” value in test [1] was “inhibited neither GST-Cdk5.GST-Nck5a nor GST-Cdk2.cyclin A-H6”. Moreover, the “inhibition of Cdk2 kinase activity (in words)” value in test [2] is recorded as “inhibited neither GST-Cdk5.GST-Nck5a nor GST-Cdk2.cyclin A-H6”.
Turning to “GST-αN: GST fusion mutant containing a 29-residue peptide fragment corresponding to residues Gln145 to Asp173 of Nck5a (QASTSELLRCLGEFLCRRCYRLKHLSPTD; cysteine pairing not given here; also: fused to GST)”, the “inhibition of Cdk5 kinase activity (in words)” value in test [1] is “inhibit Cdk5 kinase activity in a dose-dependent manner”. Moreover, the “Cdk5 kinase activity inhibited” value in test [1] (GST-αN concentration of 5 μM) was “About 50%”. Moreover, the “inhibition of Cdk2 kinase activity (in words)” value in test [2] is “also inhibited the kinase activity of Cdk2”.
In turn, `CC(C)C[C@H](NC(=O)[C@H](CS)NC(=O)[C@H](CCCNC(=N)N)NC(=O)[C@H](CC(C)C)NC(=O)[C@H](CC(C)C)NC(=O)[C@H](CCC(=O)O)NC(=O)[C@H](CO)NC(=O)[C@@H](NC(=O)[C@H](CO)NC(=O)[C@H](C)N)[C@@H](C)O)C(=O)NCC(=O)N[C@@H](CCC(=O)O)C(=O)N[C@@H](Cc1ccccc1)C(=O)N[C@@H](CC(C)C)C(=O)N[C@@H](CS)C(=O)N[C@@H](CCCNC(=N)N)C(=O)N[C@@H](CCCNC(=N)N)C(=O)N[C@@H](CS)C(=O)N[C@@H](Cc1ccc(O)cc1)C(=O)N[C@@H](CCCNC(=N)N)C(=O)N[C@@H](CC(C)C)C(=O)N[C@@H](CCCCN)C(=O)N[C@@H](Cc1c[nH]cn1)C(=O)N[C@@H](CC(C)C)C(=O)N[C@@H](CO)C(=O)N1CCC[C@H]1C(=O)N[C@H](C(=O)N[C@@H](CC(=O)O)C(=O)O)[C@@H](C)O` [αN peptide] (H-ASTSELLRCLGEFLCRRCYRLKHLSPTD-OH; N-terminus and C-terminus assumed) showed an inhibition at 5 µM in test [1] (5 μM peptide, heading: inhibition of Cdk5 activity) of 10%. At 20 µM the inhibition in test [1] (20 μM peptide) was 50%. Moreover, in test [1] (50 μM peptide), testing at 50 µM gave an inhibition of 90%. Also, in test [1] (50 μM peptide), the “inhibition of Cdk5 activity” value was “about 90%”. The “effect of a large excess of GST-Nck5a on Cdk5 inhibition by the peptide” value in test [1] (50 μM peptide, 2, 20, 40 μg GST-p25 with 1 μg GST-Cdk5) is listed as “no significant effect”. Also, the inhibition at 0.5 µM in test [2] (0.5 μM peptide) was 10%. Moreover, in test [2] (2 μM peptide), the inhibition at 2 µM is 50%. The same molecule gave an inhibition at 10 µM in test [2] (10 μM peptide) of 90%. In addition, the “inhibition of Cdk2 kinase activity (in words)” value in test [2] is “even higher potency than in the case with Cdk5.Nck5a inhibition”. Also, the “dissociation of Nck5a from Cdk5 on addition of peptide” value is “did not lead to a dissociation of GST-Nck5a from H6-Cdk5” in test [3] and “does not lead to the dissociation of Nck5a from Cdk5” in test [3] (setting [6]). Moreover, the “dissociation of cyclin A from Cdk2 on addition of peptide” value in test [4] was “formation of a ternary complex”; in test [4] (setting [6]), “does not lead to the dissociation of Nck5a from Cdk5 or cyclin A from Cdk2”. In addition, the “inhibition of the kinase by an excess amount of peptide” value in test [5] (400 μM peptide, data not shown) is listed as “near complete inhibition”. Moreover, in test [5] (double-reciprocal plot), the “mode of inhibition with respect to the substrate (histone H1 peptide)” value is on record as “noncompetitive inhibitor”.
